Results from article PMC5840262, “Design, Synthesis and Evaluation of Branched RRWQWR-Based Peptides as Antibacterial Agents Against Clinically Relevant Gram-Positive and Gram-Negative Pathogens” (Frontiers in Microbiology, 2018).
Values after ≈ are worked out from the molar mass of the structure shown. Like-named read-outs stand apart in the source and are kept apart here. Each block holds one compound with its values, some of them ahead of it. Bridge positions count the residues as written; N and C are the ends. Square brackets hold non-standard residues; d marks the D form. Peptide text beside a SMILES is read from it. I, II: the chains in the order shown. Ahx = NCCCCCC(=O)O

How the values were obtained:
[1] = system: Pseudomonas aeruginosa ATCC 27853 (resistant); assay type: cell-based
Description: (§1) We screened all five peptides against the ATCC reference strains and the clinical isolates according to Method M7-A7 of the National Committee for Clinical Laboratory Standards (CLSI, [2007]). The MIC50 and MBC values were determined using a broth microdilution and growth inhibition method previously reported by Leon-Calvijo et al. ([2015]), with some modifications (Wiegand et al., [2008]). Briefly, the MIC50 experiments comprised a liquid-inhibition growth assay in a sterile, untreated, 96-well flat-bottom tissue culture plate. The bacteria were cultured overnight n Mueller Hinton agar; three colonies were transferred to 8 mL of Mueller Hilton broth and incubated at 37°C until the mid-exponential phase of growth. The turbidity of the cultures was measured and adjusted spectrophotometrically to a McFarland standard of 0.5, and then diluted to a final concentration of 5 × 10^7 colony forming units (CFU) per well. Stock solutions (2,000 μM) of each test peptide were serially diluted to final concentrations (per well) of 200, 100, 50, 25, 12.5, and 6.25 μM. Each concentration was evaluated in duplicate and each assay was performed in triplicate.
(§2) Wells containing Mueller Hilton broth with bacterial inoculum only served as bacterial-growth controls. Additional controls included Mueller Hilton broth alone (as blank) and Mueller Hilton broth with ciprofloxacin (2 μg/mL; as positive control). The microplate was incubated for 24 h at 37°C, and growth inhibition was measured by monitoring the optical density at 620 nm (OD620). The MIC50 was defined as the peptide concentration at which bacterial growth was inhibited by 50%.
(§3) To determine the MBC, an aliquot from each well of the MIC50 assay was spread onto Mueller Hilton agar. After 18 h at 37°C, the concentration that inhibited bacterial growth was determined. Each of these tests was performed four times. MBC was defined as the lowest concentration of peptide at which the number of bacteria was reduced by 99.9% in vitro (European Committee for Antimicrobial Susceptibility Testing, [2000]).

[2] = system: Pseudomonas aeruginosa ATCC 10145 (sensitive); assay type: cell-based
Description: as §1, §2, §3

[3] = system: Enterococcus faecalis ATCC 29212 (sensitive); assay type: cell-based; details: for Bacterial viability (lowest value observed): untreated control = 100%, Figure 2A
Description: as §1, §2, §3

[4] = system: Enterococcus faecalis ATCC 51575 (resistant); assay type: cell-based; details: for Bacterial viability (lowest value observed): untreated control = 100%, Figure 2B
Description: as §1, §2, §3

human erythrocytes = assay: Hemolytic activity; assay type: cell-based
Description: Human erythrocytes collected from the blood samples of healthy humans were harvested by centrifugation for 7 min at 162 × g and washed three times in phosphate-buffered saline (PBS). The erythrocytes (2% hematocrit in PBS) were incubated with peptide molecules at several concentrations (6.25, 12.5, 25, 50, and 100 μM) for 2 h at 37°C. PBS was used as negative control for hemolysis, and sterile distilled water was used as positive control (100% hemolysis). The plate was subsequently centrifuged at 1,459 × g for 10 min at 4°C. Aliquots of the supernatant from each well (75 μL) were carefully transferred to a new sterile 96-well plate, and hemolytic activity was evaluated by measuring the OD492 using an Asys Expert Plus Microplate reader. The experiments were performed in duplicate, and hemolytic activity was calculated for each peptide.

[5] = system: clinical isolates of Gram-negative bacteria (Klebsiella pneumoniae, Pseudomonas aeruginosa); assay: Therapeutic index, Gram-negative clinical isolates; details: for Fold (GM peptide / GM tetrameric peptide): Gram-negative clinical isolates
Excerpt: (§4) We determined the therapeutic index of each peptide, which we defined as the ratio of Maximum Hemolytic Activity (Hmax) to MIC50 (Hmax/MIC50).
(§5) The results are shown in Table 7 (Gram-positive) and Table 8 (Gram-negative). Regarding the Gram-positive bacteria, the palindromic, dimeric and tetrameric peptides were active chiefly against S. aureus. This trend was consistent with results of the experiments on the ATCC strains, in which these peptides were only active against the sensitive strain of the […] bacteria.

[6] = system: Gram-negative ATCC strains (K. pneumoniae 13883 and 700603, P. aeruginosa 10145 and 27853); details: for Fold (GM peptide / GM tetrameric peptide): Gram-negative ATCC strains
Excerpt: as §4
The therapeutic index (TI) is a ratio of the toxic dose of a substance to its therapeutically-active dose and can be calculated different ways (e.g., LD50/ED50). Here, we calculated a TI value for each peptide against all the Gram-positive or the Gram-negative ATCC strains, by dividing its Hmax by its MIC50 for the given group of strains. […] Additionally, to make our quantitative analysis more robust [geometric mean (Khachatryan et al., [2017]) and fold values], we have included MIC50 values for these peptides against S. aureus and K. pneumoniae that we previously obtained using the same assay, the M7-A7 method of the National Committee for Clinical Laboratory Standards (Leon-Calvijo et al., [2015]).

[7] = system: Klebsiella pneumoniae clinical isolate 50,424; assay type: cell-based
Description: (§6) For the clinical isolates, we used 20 different isolates from the Public Health Reference Laboratory collection of the Secretaría de Salud del Distrito (SdSD; Bogotá, Colombia). The samples were collected from June to December 2016. For each isolate, the patient parameters (age, gender and location) and the culture site were recorded for epidemiologic monitoring (Table 1). All isolates had been previously tested for antibiotic sensitivity at the Public Health Microbiology Laboratory using either the Phoenix™ system (Gram-positive) or the VITEK 2 system (Gram-negative).
as §1, §2, §3

[8] = system: Staphylococcus aureus clinical isolate 52,013; assay type: cell-based
Description: as §6, §1, §2, §3

[9] = system: Pseudomonas aeruginosa clinical isolate 47,661; assay type: cell-based
Description: as §6, §1, §2, §3

[10] = system: clinical isolates of Gram-positive bacteria (Enteroccocus faecium, Staphylococcus aureus); assay: Therapeutic index, Gram-positive clinical isolates; details: for Fold (GM peptide / GM tetrameric peptide): Gram-positive clinical isolates
Excerpt: as §4, §5

MIC50 ([1]; ATCC 27853, 24 h): 34.8 µM (≈ 76.4 µg/mL) | MIC50 ([2]; ATCC 10145, 24 h): 29.1 µM (≈ 63.9 µg/mL) | MIC50 ([3]; ATCC 29212, 24 h): 13.1 µM (≈ 28.8 µg/mL) | MIC50 ([4]; ATCC 51575, 24 h): >200.0 µM | Gm, geometric mean of MIC50 values [6]: 16.1 | MIC50 ([7]; clinical isolate 50,424, 24 h): 5.8 µM (≈ 12.7 µg/mL) | MIC50 ([8]; clinical isolate 52,013, 24 h): 12.6 µM (≈ 27.7 µg/mL) | MIC50 ([9]; clinical isolate 47,661, 24 h): 13.4 µM (≈ 29.4 µg/mL)
Compound: N=C(N)NCCC[C@H](NC(=O)[C@H](Cc1c[nH]c2ccccc12)NC(=O)[C@H](CCC(N)=O)NC(=O)[C@H](Cc1c[nH]c2ccccc12)NC(=O)[C@H](CCCNC(=N)N)NC(=O)[C@@H](N)CCCNC(=N)N)C(=O)NCCCC[C@H](NC(=O)[C@H](CCCNC(=N)N)NC(=O)[C@H](Cc1c[nH]c2ccccc12)NC(=O)[C@H](CCC(N)=O)NC(=O)[C@H](Cc1c[nH]c2ccccc12)NC(=O)[C@H](CCCNC(=N)N)NC(=O)[C@@H](N)CCCNC(=N)N)C(=O)NCCCCCC(N)=O [LfcinB (20–25)2] (I: H-RRWQWRK[Ahx]-NH2 / II: H-RRWQWR; amide I:7-II:C; N-terminus assumed)
MBC ([1]; ATCC 27853, 18 h): 200.0 µM (≈ 439 µg/mL) | MBC relative to MBC of the tetrameric peptide (× MBCtet) ([1]; resistant P. aeruginosa strain): 4 × MBCtet | MBC ([2]; ATCC 10145, 18 h): 100.0 µM (≈ 220 µg/mL) | MBC relative to MBC of the tetrameric peptide (× MBCtet) ([2]; sensitive P. aeruginosa strain): 4 × MBCtet | Bacterial viability (lowest value observed) ([3]; 25 μM): 40.9% | MBC ([3]; ATCC 29212, 18 h): 100.0 µM (≈ 220 µg/mL) | MBC relative to MBC of the tetrameric peptide (× MBCtet) ([3]; sensitive E. faecalis strain): 4 × MBCtet | Bacterial viability (lowest value observed) ([4]; 25.0 μM): 65.3% | MBC ([4]; ATCC 51575, 18 h): >200.0 µM | H50, concentration of peptide leading to 50% hemolysis (human erythrocytes; red cells of human, 2 h): >100 µM | Gm, geometric mean of MIC50 values [5]: 16.8 µM | Fold (GM peptide / GM tetrameric peptide) [5]: 1.7 | Fold (GM peptide / GM tetrameric peptide) [6]: 1.2 | MBC ([7]; clinical isolate 50,424, 18 h): >100 µM | MBC ([8]; clinical isolate 52,013, 18 h): 25.0 µM (≈ 54.9 µg/mL) | MBC ([9]; clinical isolate 47,661, 18 h): >100 µM | Gm, geometric mean of MIC50 values [10]: 16.4 | Fold (GM peptide / GM tetrameric peptide) [10]: 2.4

MIC50 ([1]; P. aeruginosa ATCC 27853 resistant, broth microdilution, 24 h 37°C, OD620, 50% growth inhibition): 21.7 µM | MIC50 ([2]; P. aeruginosa ATCC 10145 sensitive, broth microdilution, 24 h 37°C, OD620, 50% growth inhibition): 18.1 µM | MIC50 ([3]; E. faecalis ATCC 29212 sensitive, broth microdilution, Mueller Hinton broth, 24 h 37°C, OD620, concentration inhibiting growth by 50%): 3.1 µM | MIC50 ([4]; E. faecalis ATCC 51575 resistant, broth microdilution, 24 h 37°C, OD620, 50% growth inhibition): >200.0 µM | Gm, geometric mean of MIC50 values ([6]; Gram-negative ATCC strains 13883, 700603, 10145, 27853, in µM): 13.1 | MIC50 ([7]; K. pneumoniae isolate 50,424, broth microdilution, 24 h 37°C, OD620, 50% growth inhibition): 7.8 µM | MIC50 ([8]; S. aureus isolate 52,013, broth microdilution, 24 h 37°C, OD620, 50% growth inhibition): 6.7 µM | MIC50 ([9]; P. aeruginosa isolate 47,661, broth microdilution, 24 h 37°C, OD620, 50% growth inhibition): 7.5 µM
Compound: (RRWQWR)4K2Ahx2C2 (disulfide) [LfcinB (20–25)4, branched tetrameric peptide (RRWQWR)4K2Ahx2C2, two dimers linked by a cysteine disulfide bridge]
MBC ([1]; P. aeruginosa ATCC 27853 resistant, plated on Mueller Hinton agar, 18 h 37°C, 99.9% reduction): 50.0 µM | MBC ([2]; P. aeruginosa ATCC 10145 sensitive, plated on Mueller Hinton agar, 18 h 37°C, 99.9% reduction): 50.0 µM | Bacterial viability (lowest value observed) ([3]; 6.2 μM): 48.9% | MBC ([3]; E. faecalis ATCC 29212 sensitive, aliquots of MIC50 wells on Mueller Hinton agar, 18 h 37°C, 99.9% reduction): 25.0 µM | Bacterial viability (lowest value observed) ([4]; 12.5 μM): 62.4% | MBC ([4]; E. faecalis ATCC 51575 resistant, plated on Mueller Hinton agar, 18 h 37°C, 99.9% reduction): >200.0 µM | Hmax relative to that of the dimer (human erythrocytes): 8 x | Fold (GM peptide / GM tetrameric peptide) [5]: 1.0 | Gm, geometric mean of MIC50 values ([5]; Gram-negative clinical isolates (K. pneumoniae, P. aeruginosa) with a printed MIC50): 9.7 µM | Fold (GM peptide / GM tetrameric peptide) [6]: 1.0 | MBC ([7]; K. pneumoniae isolate 50,424, plated on agar 18 h 37°C, 99.9% reduction): 100.0 µM | MBC ([8]; S. aureus isolate 52,013, plated on agar 18 h 37°C, 99.9% reduction): 12.5 µM | MBC ([9]; P. aeruginosa isolate 47,661, plated on agar 18 h 37°C, 99.9% reduction): 25.0 µM | Fold (GM peptide / GM tetrameric peptide) [10]: 1.0 | Gm, geometric mean of MIC50 values ([10]; Gram-positive clinical isolates (E. faecium, S. aureus) with a printed MIC50): 7.0
